# Laboratory results taken from patent US20230255197A1, “INFLUENCE OF THE MORPHOLOGICAL AND THE STRUCTURAL CHANGES ON THE ANTIMICROBIAL ACTIVITIES OF TITANATE NANOWIRES” (BOARD OF TRUSTEES OF THE UNIVERSITY OF ARKANSAS, priority 2022, published 2023).
# Test system: E. coli cells
# Assay: E. coli growth in LB medium in 96-well plates, cell growth monitored by absorbance at 600 nm
# Format: cell-based
# Details: 37° C., O.D. at 600 nm = 0.25, read from FIG. 2, chloramphenicol:nanomaterial w/w 1:10
# Protocol: In step (3), to test the antimicrobial efficiency, solution of E. coli cells were inoculated into fresh LB medium and incubated at 37° C. overnight. In one embodiment, 5µL solution of E. coli cells was inoculated into 2 ml of fresh LB medium. Sample of the overnight culture was transferred into each well of a 96-well plate and further grown with 200 µL fresh LB medium. To test antimicrobial activities, different concentrations of antimicrobial agents alone, TiO2 alone, and TiO2 nanowires - chloramphenicol complex were added to the LB medium with E. coli cells. It should be noted that same procedure was followed to prepare different concentrations (1, 2, 3, 4, and 5 µg/ml) of either chloramphenicol alone, nanomaterials alone or a mixture of both. Three identical replicates were prepared on the plate for each assigned material. Then, the 96-well plates were sealed with an oxygen-permeable membrane and the cell growth was monitored by reading the absorbance at 600 nm with microplate readers at 37° C. continuously. Equal amounts of chloramphenicol were mixed with each sample of the assigned version of nanomaterials (Na-TiO2 and K-TiO2) with a w/w ratio of 1:10. […]
smiles,measurement,value
O=C(N[C@H](CO)[C@H](O)c1ccc([N+](=O)[O-])cc1)C(Cl)Cl [chloramphenicol],concentration of chloramphenicol necessary to reach the same O.D. reading 0.25 (same degree of antimicrobial activity),5 µg/mL
